This passage reports SHP2% degradation results from patent US20260144788A1, “COMPOUND FOR SHP2 PROTEIN DEGRADATION AND MEDICAL USES THEREOF” (UBIX THERAPEUTICS, INC., priority 2022, published 2026).

The target of the test is T1, SHP2 protein (Homo sapiens, UniProt Q06124).
T1 sequence (Q06124 1-593): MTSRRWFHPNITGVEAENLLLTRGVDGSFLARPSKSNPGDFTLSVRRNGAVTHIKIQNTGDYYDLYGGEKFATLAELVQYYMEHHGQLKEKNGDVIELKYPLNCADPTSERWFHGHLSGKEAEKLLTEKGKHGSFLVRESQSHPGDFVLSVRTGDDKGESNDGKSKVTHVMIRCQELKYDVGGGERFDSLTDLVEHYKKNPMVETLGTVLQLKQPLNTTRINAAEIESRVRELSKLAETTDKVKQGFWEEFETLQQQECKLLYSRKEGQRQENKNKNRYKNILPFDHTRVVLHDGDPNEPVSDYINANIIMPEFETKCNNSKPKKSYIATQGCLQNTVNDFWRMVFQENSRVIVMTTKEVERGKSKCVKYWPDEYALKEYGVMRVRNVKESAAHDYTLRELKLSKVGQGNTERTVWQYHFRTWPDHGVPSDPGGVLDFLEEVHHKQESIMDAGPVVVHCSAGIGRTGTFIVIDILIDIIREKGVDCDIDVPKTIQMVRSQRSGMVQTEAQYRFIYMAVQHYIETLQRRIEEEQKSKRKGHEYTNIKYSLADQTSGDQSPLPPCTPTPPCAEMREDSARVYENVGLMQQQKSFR
Description: Measurement of SHP2 protein degradation in NCI-H358 cells (western blotting). The settings on record: harvested after 24 hours. The class given is cell-based. The arrangement: endogenous in cells; host or cells: NCI-H358. In short, it runs like this:
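H358 cells in RPMI1640/25 mM HEPES/10% FBS, cultured 24 h, then exposed to compound at final 0.001, 0.01 and 0.1 μM for 24 h against a DMSO control. Lysates were normalised for protein by BCA and probed by western blot for SHP2, with GAPDH as loading control.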
(In general: A western blot detects proteins with antibodies after separation by electrophoresis.)

For the molecule `Cc1ncsc1-c1ccc(CNC(=O)[C@@H]2C[C@@H](O)CN2C(=O)[C@H](C(C)C)n2cc(C3CC3)nn2)c(OC2CCN(C(=O)C3CCN(c4nccc(Sc5cnc(N6CCC7(CC6)CO[C@@H](C)[C@H]7N)cn5)c4Cl)CC3)CC2)c1` [Example 103, (2S,4R)—N-(2-((1-(1-(4-((5-((3S,4S)-4-amino-3-methyl-2-oxa-8-azaspiro[4.5]decan-8-yl)pyrazin-2-yl)thio)-3-chloropyridin-2-yl)piperidine-4-carbonyl)piperidin-4-yl)oxy)-4-(4-methylthiazol-5-yl)benzyl)-1-((S)-2-(4-cyclopropyl-1H-1,2,3-triazol-1-yl)-3-methylbutanoyl)-4-hydroxypyrrolidine-2-carboxamide], the SHP2% degradation reads like this: (0.01 μM) 99.9%; (0.1 μM) 99.7%.
For `Cc1ncsc1-c1ccc(CNC(=O)[C@@H]2C[C@@H](O)CN2C(=O)[C@H](C(C)C)n2cc(C3CC3)nn2)c(OC2CCN(C(=O)C3CCN(c4nccc(Sc5cnc(N6CCC(C)(CN)CC6)cn5)c4Cl)CC3)CC2)c1` [Example 101, (2S,4R)—N-(2-((1-(1-(4-((5-(4-(aminomethyl)-4-methylpiperidin-1-yl)pyrazin-2-yl)thio)-3-chloropyridin-2-yl)piperidine-4-carbonyl)piperidin-4-yl)oxy)-4-(4-methylthiazol-5-yl)benzyl)-1-((S)-2-(4-cyclopropyl-1H-1,2,3-triazol-1-yl)-3-methylbutanoyl)-4-hydroxypyrrolidine-2-carboxamide], the SHP2% degradation is given as 96.3% (0.01 μM) and 97.4% (0.1 μM).
As for `CC(=O)N[C@H](C(=O)N1C[C@H](O)C[C@H]1C(=O)NCc1ccc(-c2scnc2C)cc1O[C@H]1CC[C@H](C(=O)N2CC(N3CCc4c(Sc5cnc(N6CCC7(CC6)CO[C@@H](C)[C@H]7N)cn5)cccc43)C2)CC1)C(C)(C)C` [Example 32, (2S,4R)-1-((S)-2-acetamido-3,3-dimethylbutanoyl)-N-(2-(((1R,4S)-4-(3-(4-((5-((3S,4S)-4-amino-3-methyl-2-oxa-8-azaspiro[4.5]decan-8-yl)pyrazin-2-yl)thio)indolin-1-yl)azetidine-1-carbonyl)cyclohexyl)oxy)-4-(4-methylthiazol-5-yl)benzyl)-4-hydroxypyrrolidine-2-carboxamide], the SHP2% degradation is, setting by setting: (0.01 μM) 54.4%; (0.1 μM) 98.5%.
On the same counts, the results for `CC(=O)N[C@H](C(=O)N1C[C@H](O)C[C@H]1C(=O)NCc1ccc(-c2scnc2C)cc1OC1CCN(C(=O)C2CCN(c3nccc(Sc4cnc(N5CCC(C)(N)CC5)c(CO)n4)c3Cl)CC2)CC1)C(C)(C)C` [Example 79, (2S,4R)-1-((S)-2-acetamido-3,3-dimethylbutanoyl)-N-(2-((1-(1-(4-((5-(4-amino-4-methylpiperidin-1-yl)-6-(hydroxymethyl)pyrazin-2-yl)thio)-3-chloropyridin-2-yl)piperidine-4-carbonyl)piperidin-4-yl)oxy)-4-(4-methylthiazol-5-yl)benzyl)-4-hydroxypyrrolidine-2-carboxamide] are 96.1% and 99.9%.
With `CC(=O)N[C@H](C(=O)N1C[C@H](O)C[C@H]1C(=O)NCc1ccc(-c2scnc2C)cc1O[C@H]1CC[C@H](C(=O)N2CCC(N3CCOc4c(Sc5cnc(N6CCC7(CC6)CO[C@@H](C)[C@H]7N)cn5)cccc43)CC2)CC1)C(C)(C)C` [Example 36, (2S,4R)-1-((S)-2-acetamido-3,3-dimethylbutanoyl)-N-(2-(((1R,4S)-4-(4-(8-((5-((3S,4S)-4-amino-3-methyl-2-oxa-8-azaspiro[4.5]decan-8-yl)pyrazin-2-yl)thio)-2H-benzo[b][1,4]oxazin-4(3H)-yl)piperidine-1-carbonyl)cyclohexyl)oxy)-4-(4-methylthiazol-5-yl)benzyl)-4-hydroxypyrrolidine-2-carboxamide], the SHP2% degradation runs as follows: (0.01 μM) 91.0%; (0.1 μM) 100.0%.
Consider `CC(=O)N[C@H](C(=O)N1C[C@H](O)C[C@H]1C(=O)NCc1ccc(-c2scnc2C)cc1OC1CCN(C(=O)C2CCN(c3nccc(Sc4cnc(N5CCC(C)(CN)CC5)cn4)c3Cl)CC2)CC1)C(C)C` [Example 90, (2S,4R)-1-(acetyl-L-valyl)-N-(2-((1-(1-(4-((5-(4-(aminomethyl)-4-methylpiperidin-1-yl)pyrazin-2-yl)thio)-3-chloropyridin-2-yl)piperidine-4-carbonyl)piperidin-4-yl)oxy)-4-(4-methylthiazol-5-yl)benzyl)-4-hydroxypyrrolidine-2-carboxamide], for which the SHP2% degradation (0.01 μM) stood at 70.5% and the SHP2% degradation (0.1 μM) was 99.2%.
For `CC(=O)N[C@H](C(=O)N1C[C@H](O)C[C@H]1C(=O)NCc1ccc(-c2scnc2C)cc1OC1CCN(C(=O)C2CCN(c3nccc(Sc4cnc(N5CCC6(CC5)CO[C@@H](C)[C@H]6N)c(CO)n4)c3Cl)CC2)CC1)C(C)(C)C` [Example 80, (2S,4R)-1-((S)-2-acetamido-3,3-dimethylbutanoyl)-N-(2-((1-(1-(4-((5-((3S,4S)-4-amino-3-methyl-2-oxa-8-azaspiro[4.5]decan-8-yl)-6-(hydroxymethyl)pyrazin-2-yl)thio)-3-chloropyridin-2-yl)piperidine-4-carbonyl)piperidin-4-yl)oxy)-4-(4-methylthiazol-5-yl)benzyl)-4-hydroxypyrrolidine-2-carboxamide], in that order: 99.6% and 99.5%.
On the same counts, the results for `CC(=O)N[C@H](C(=O)N1C[C@H](O)C[C@H]1C(=O)NCc1ccc(-c2scnc2C)cc1O[C@H]1CC[C@H](C(=O)N2CCC(Nc3nccc(Sc4cnc(N5CCC(C)(N)CC5)cn4)c3Cl)CC2)CC1)C(C)(C)C` [Example 42, (2S,4R)-1-((S)-2-acetamido-3,3-dimethylbutanoyl)-N-(2-(((1R,4S)-4-(4-((4-((5-(4-amino-4-methylpiperidin-1-yl)pyrazin-2-yl)thio)-3-chloropyridin-2-yl)amino)piperidine-1-carbonyl)cyclohexyl)oxy)-4-(4-methylthiazol-5-yl)benzyl)-4-hydroxypyrrolidine-2-carboxamide] are 95.2% and 98.7%.
Consider `Cc1cn([C@H](C(=O)N2C[C@H](O)C[C@H]2C(=O)NCc2ccc(-c3scnc3C)cc2OC2CCN(C(=O)C3CCN(c4nccc(Sc5cnc(N6CCC7(CC6)CO[C@@H](C)[C@H]7N)c(CO)n5)c4Cl)CC3)CC2)C(C)C)nn1` [Example 110, (2S,4R)—N-(2-((1-(1-(4-((5-((3S,4S)-4-amino-3-methyl-2-oxa-8-azaspiro[4.5]decan-8-yl)-6-(hydroxymethyl)pyrazin-2-yl)thio)-3-chloropyridin-2-yl)piperidine-4-carbonyl)piperidin-4-yl)oxy)-4-(4-methylthiazol-5-yl)benzyl)-4-hydroxy-1-((S)-3-methyl-2-(4-methyl-1H-1,2,3-triazol-1-yl)butanoyl)pyrrolidine-2-carboxamide], for which the SHP2% degradation by setting is: (0.01 μM) 99.8%; (0.1 μM) 99.8%.
As to `Cc1cc(C(C(=O)N2C[C@H](O)C[C@H]2C(=O)NCc2ccc(-c3scnc3C)cc2O[C@H]2CC[C@H](C(=O)N3CC(Nc4cccc(Sc5cnc(N6CCC(C)(CN)CC6)cn5)c4Cl)C3)CC2)C(C)C)on1` (stereo partly drawn) [Example 115, (2S,4R)—N-(2-(((1R,4S)-4-(3-((3-((5-(4-(aminomethyl)-4-methylpiperidin-1-yl)pyrazin-2-yl)thio)-2-chlorophenyl)amino)azetidine-1-carbonyl)cyclohexyl)oxy)-4-(4-methylthiazol-5-yl)benzyl)-4-hydroxy-1-(3-methyl-2-(3-methylisoxazol-5-yl)butanoyl)pyrrolidine-2-carboxamide], the SHP2% degradation reads like this: (0.01 μM) 98.3%; (0.1 μM) 99.2%.
On the same counts, the results for `CC(=O)N[C@H](C(=O)N1C[C@H](O)C[C@H]1C(=O)NCc1ccc(-c2scnc2C)cc1OC1CCN(C(=O)C2CCN(c3nccc(Sc4cnc(N5CCC(C)(CN)CC5)c(CO)n4)c3Cl)CC2)CC1)C(C)(C)C` [Example 78, (2S,4R)-1-((S)-2-acetamido-3,3-dimethylbutanoyl)-N-(2-((1-(1-(4-((5-(4-(aminomethyl)-4-methylpiperidin-1-yl)-6-(hydroxymethyl)pyrazin-2-yl)thio)-3-chloropyridin-2-yl)piperidine-4-carbonyl)piperidin-4-yl)oxy)-4-(4-methylthiazol-5-yl)benzyl)-4-hydroxypyrrolidine-2-carboxamide] are 98.0% and 99.4%.
For `Cc1ncsc1-c1ccc(CNC(=O)[C@@H]2C[C@@H](O)CN2C(=O)[C@H](C(C)C)n2cc(C3CC3)nn2)c(OC2CCN(C(=O)C3CCN(c4nccc(Sc5cnc(N6CCC(C)(CN)CC6)c(CO)n5)c4Cl)CC3)CC2)c1` [Example 104, (2S,4R)—N-(2-((1-(1-(4-((5-(4-(aminomethyl)-4-methylpiperidin-1-yl)-6-(hydroxymethyl)pyrazin-2-yl)thio)-3-chloropyridin-2-yl)piperidine-4-carbonyl)piperidin-4-yl)oxy)-4-(4-methylthiazol-5-yl)benzyl)-1-((S)-2-(4-cyclopropyl-1H-1,2,3-triazol-1-yl)-3-methylbutanoyl)-4-hydroxypyrrolidine-2-carboxamide], in that order: 98.6% and 98.0%.
